From patent publication US7507581B2, “Inhibition of pancreatic islet aggregation” (Synthecon, Inc., priority 2005, dated 2009)
“Also recorded” adds a separate entry of the source.

Assays:
Type in all cases: cell-based
human pancreatic islets [1] = assay: Aggregation of high-density pancreatic islets in culture (RCCS bioreactor or petri dish)
Experimental: It is hypothesized that synthetic peptides containing the IKVAV peptide sequence (SEQ ID NO. 2) can inhibit the aggregation of islets cultures in the RCCS bioreactor. Experiments were performed to compare the aggregation of about 200-300 islets/ml cultured in the presence and absence of each peptide to be tested. Initial experiments added the peptide to the culture media in a small (10 ml) RCCS bioreactor vessel. It was realized that providing a large volume of culture media with sufficient concentrations of the PA22-2 peptide or another IKVAV-containing peptide component of laminin would be prohibitively expensive. Thus, the experimental protocol was altered as described below.
(§1) In each sample, the islets were allowed to settle at 1×g in a sterile centrifuge tube. Once the islets had settled, the supernatant was removed and replaced with 2 ml of media. Control samples of islets (Samples 2 and 4) were placed in the control media (i.e., CMRL-1066 media containing 10% bovine serum, 1% penicillin/streptomycin/amphotericin B, and 2 mM glutamine) and experimental samples of islets (Samples 3 and 5) were incubated with the control media to which 50 μg/ml IKVAV-containing peptide such as the PA22-2 (SEQ ID NO. 1) peptide had been added. The IKVAV-containing peptides are hereinafter referred to as laminin A chain peptide. […]
(§2) Samples 2 and 3 were transferred to standard culture dishes (petri dishes) at a cell density of approximately 200 islets/ml. […] After the Samples 2-5 had been cultured for 7 days, the islets were removed from the culture dish or RCCS bioreactor vessel and assessed for aggregation, apoptosis and ATP levels.
An aliquot of islets from each sample was fixed by washing the islets two times in phosphate buffered saline (PBS) and then transferring the washed samples to a 4% paraformaldehyde solution for 2 hours to fix the islets. […] The islets were analyzed for their, degree of aggregation by digitizing ten microscopic fields and measuring the cross sectional areas of the islets within each field with the image processing program NIH Image. […]

human pancreatic islets [2] = assay: H & E stained thin sections of cultured human islets; conditions: preincubated with peptide, 7 days in RCCS bioreactor; compared with petri dish control
Experimental: (§3) In each sample, the islets were allowed to settle at 1×g in a sterile centrifuge tube. Once the islets had settled, the supernatant was removed and replaced with 2 ml of media. Control samples of islets (Samples 2 and 4) were placed in the control media (i.e., CMRL-1066 media containing 10% bovine serum, 1% penicillin/streptomycin/amphotericin B, and 2 mM glutamine) and experimental samples of islets (Samples 3 and 5) were incubated with the control media to which 50 μg/ml IKVAV-containing peptide such as the PA22-2 (SEQ ID NO. 1) peptide had been added. The IKVAV-containing peptides are hereinafter referred to as laminin A chain peptide.
(§4) All four samples were gently mixed and placed in a humidified incubator for 3 hours at 37° C. At half hour intervals, the tubes containing the samples were gently inverted to prevent aggregation of the islet pellet.
(§5) Samples 2 and 3 were transferred to standard culture dishes (petri dishes) at a cell density of approximately 200 islets/ml. Samples 4 and 5 were transferred to 35 ml perfused RCCS bioreactor vessels at a cell density of approximately 200 islets/ml. All of the samples (Samples 2-5) were then cultured for 7 days. After the Samples 2-5 had been cultured for 7 days, the islets were removed from the culture dish or RCCS bioreactor vessel and assessed for aggregation, apoptosis and ATP levels. […]

[3] = tested on: caspase 3 activity in cultured human pancreatic islets; assay: Caspase 3 activity (apoptosis) in cultured human pancreatic islets
Experimental: as §3, §4
as §5, with “All of the samples (Samples 2-5) were then cultured for 7 days.” left out
Fifty microliters of the lysed cell supernatant from each sample was transferred into a microplate well. […] The free rhodamine was measured by fluorescence (excitation/emission-496/520 nm). The fluorescence was quantitated using arbitrary fluorescence units derived by normalizing the rhodamine fluorescence to the quantity of DNA in the islet sample, which is directly proportional to cell number.
Experiments were performed to compare islet caspase 3 activity in islets cultured in conventional petri dishes (labeled in FIG. 3 as Dish) with islets preincubated with the laminin A chain peptide PA22-2 and cultured in an RCCS bioreactor (labeled in FIG. 3 as RCCS+ laminin). […] The data from four experiments was analyzed by a one-way ANOVA. Differences between the groups were determined by the Student-Newman Keuls test.

human pancreatic islets [4] = assay: ATP levels in cultured human pancreatic islets (luciferin/luciferase luminescence)
Experimental: as §1, §2
Islet ATP levels were measured by luciferin/luciferase luminescence. […] The cells were pelleted by centrifugation and 10 μl of the lysed cell supernatant was placed in a luminescence multiwell plate with 90 μl of reaction solution (25 mM Tricine pH 7.8, 5 mM MgSO4, 0.1 mM EDTA, 0.1 mM sodium azide with 0.5 mM lucifirin, 1 mM DTT and 12.5 μg of firefly luciferase). […]
The data from four experiments was analyzed by a one-way ANOVA. […]

CYS-SER-ARG-ALA-ARG-LYS-GLN-ALA-ALA-SER-ILE-LYS-VAL-ALA-VAL-SER-ALA-ASP-ARG (CSRARKQAASIKVAVSADR; laminin A chain) [PA22-2, 19 amino acid synthetic peptide containing residues 2091-2108 of the laminin A chain, IKVAV-containing]
aggregation inhibiting activity (human pancreatic islets [1]; peptide added to RCCS-cultured islets, cell density about 200-300 islets/ml): showed substantial aggregation inhibiting activity | adherence of islets to petri dish (human pancreatic islets [1]; peptide left in the media during the entire culture period, petri dish): caused the petri dish control islets to adhere to the non-stick petri dishes | degree of aggregation of islets (human pancreatic islets [1]; preincubated 3 hours with 50 μg/ml peptide, then seven-day culture in RCCS bioreactor, compared with no peptide): lower degree of aggregation; also recorded: sufficient to prevent aggregation of the islets in the RCCS bioreactor; also recorded: beneficial in preventing islet aggregation | islet structure / membrane integrity (H & E thin sections) (human pancreatic islets [2]): maintained their membrane integrity and appeared to be healthy and viable | caspase 3 activity ([3]; Dish+ laminin: preincubated 3 hours with 50 μg/ml peptide, 7 days petri dish, vs Dish control (100%), n=4): slightly lower caspase 3 activity but the values did not have a p value less than 0.05; also recorded: no significant effect on islet caspase 3 activity | caspase 3 activity ([3]; RCCS+ laminin (Sample 5): preincubated 3 hours with 50 μg/ml peptide, 7 days RCCS, vs RCCS-cultured islets without peptide (Sample 4)): less caspase 3 activity than the RCCS-cultured islets of Sample 4 | caspase 3 activity ([3]; RCCS+ laminin: preincubated 3 hours with 50 μg/ml peptide, 7 days RCCS, vs Dish control, p<0.05, n=4): significantly less caspase 3 activity than did the dish-cultured islets | ATP levels (human pancreatic islets [4]; RCCS+laminin (Sample 5): preincubated with peptide, 7 days RCCS, vs Dish control (Sample 2), p<0.05, n=4): significantly higher ATP levels | ATP levels (human pancreatic islets [4]; Sample 3: preincubated 3 hours with 50 μg/ml peptide, 7 days petri dish, vs Dish control (100%), n=4): tended to have higher ATP levels but the values did not have a p value less than 0.05
